The subject of assay [1] is Murine CPK Cells. The experiment in a line: In vitro cyst formation and cyst size in suspension culture of murine CPK cells. The class given is cell-based, mouse. As to conditions: for Cyst Size: mean ± SD of twenty cysts, concentrations as in Table II, control 71 ± 22; for cyst formation (in words): 24 h suspension culture, ouabain 0.5 mM, also 1 mM, b155 taxol 25 μM, colchicine 10 μM, vinblastine 1 μM, cytochalasins 10 μM, model species not given. The method, then:
At 10, 21 and 28 days after birth, mice having congenital polycystic kidney disease (CPK) and their phenotypically normal littermates were sacrificed by cervical dislocation. Kidneys were harvested aseptically and washed with DMEM/F12 (Sigma Chemical Co., St. Louis, Mo.) in a 1:1 mix. Each decapsulated kidney was chopped into cubes (1 mm) and incubated in 5 ml of collagenase solution composed of 1 mg/ml collagenase type IV (Worthington Biochemical Corporation, Freehold, N.J.), 1 mg/ml egg white trypsin inhibitor (Worthington) in 1:1 DMEM/F12.
The top 12 mls, which contained both single cells and aggregates of up to 10 cells, as assessed by inverted phase-ontrast microscopy, were placed in 2 ml aliquots in the wells of plastic culture plates (Corning, N.Y.) precoated with 1% agarose in DMEM:F12 (2 ml in each well of a 6-well plate; 1 ml in each well of a 24-well plate). Cell samples were digested with further incubation for 10 minutes in 0.05% trypsin and 0.53 mM EDTA (Gibco, BRL Gaithesburg, Md.) at 37° C. All cultures were plated at a final density of 1-3×10^4 cell, per well. For growth studies of monolayer cells, identical preparations were grown on the plastic surface of the culture plates. Both the monolayers and the cell suspensions were incubated at 37° C. in a moisture saturated incubator in 5% CO2 and air.
(§1) I used the in vitro cyst formation system of the present invention to analyze compounds that affect the process of cyst formation. To determine the therapeutic effectiveness of an agent, cyst-forming cells are suspended in a medium to which the agent has been added. These cells are then cultured on a solid phase without formation of a layer of cells on the surface, such as in the assay system described in Example 1. The extent to which the cells actually form cysts can be detected and compared to the extent of cyst formation expected if no agent were added. If the amount of cyst formation is lower than expected, then the agent is a good candidate for therapeutic intervention of cystic diseases.
(§2) The effects of various metabolic inhibitors on cyst formation were studied in cultures derived from day 21 postnatal CPK mice. […] Taxol (25 μM), a microtubule specific inhibitor, was from Calbiochem (La Jolla, Calif.). All other chemicals were obtained from Sigma Chemical Co. Cytosine arabinoside was added at the final concentration of 20 μg/ml to inhibit DNA synthesis; α-amanitin at 100 ng/ml to inhibit RNA synthesis; cycloheximide at 40 μg/ml to inhibit protein synthesis; amiloride at 1 mM to inhibit the renal epithelial Na^+ -H^+ exchange; ouabain at 0.5 mM to inhibit Na^+ -K^+ -ATPase; brefeldin-A at 10 μg/ml to inhibit transport of surface proteins; griseofulvin at 350 μM to inhibit microtubule function; colchicine at 10 μM to inhibit microtubule polymerization; and cytochalasin-B and cytochalasin-D at 10 μM to depolymerize actin filaments.
(§3) In the presence of these metabolic inhibitors in vitro, cyst formation was noted to be either present or absent; if present, the diameters of 20 cysts from a 0.2 ml aliquot were measured. In the same samples, ^3 H-dThd incorporation was also measured as described above. […] After each wash, cell clusters were collected by centrifuging at 200×g for 1 minute and the supernatant discarded. Washed cell clusters were resuspended in the original volume of growth medium without inhibitors, placed in agarose coated wells and incubated at 37° C. in a moisture saturated incubator in 5% CO2 and air.
(§4) In this table, the mean cyst size is reported as ±SD with a measurement of twenty cysts. The ^3 H-dThd incorporation is reported as ±SD using measurements of three wells. The * indicates […] versus control. […] The entries listed as "NA" in the table indicate data that is not available.

Assay [2] deals with Murine CPK Cells. The experiment in a line: 3H-thymidine incorporation (DNA synthesis) in CPK cell suspension culture. As to conditions: for ^3 H-dThd Incorporation: ± SD, three wells, concentrations as in Table II, control 100 ± 11, 1440 min; for ^3 H-dThd incorporation / DNA synthesis (in words): CPK cultures. It counts as cell-based, mouse. Here is the method: Growth studies were performed on kidney cells derived from day 10, 21 and 28 postnatal CPK mice and their normal littermates. Immediately after cells were placed in suspension or monolayer culture, 3 μCi of ^3 H-thymidine (^3 H-dThd, specific activity 45 Ci/mmol, Amersham, Ill.) was placed in each well of the culture plate. DNA synthesis was assessed by incorporation of ^3 H-dThd over the 24 hours of culture, and trichloroacetic acid-insoluble. radioactivity was expressed as cpm/μg protein. Protein was assayed with the BCA reagent as described by the manufacturer (Pierce, Rockford, Ill.). At 24 hours of culture, an aliquot (0.2 ml) of the suspension was removed and the number of cysts counted using an inverted microscope. The number of cysts was expressed as a ratio factored for the total number of cells in the suspension at 24 hours of culture. Cyst diameter was measured at 100× using an eyepiece micrometer.
as §2, §3, §4

The subject of assay [3] is human ADPKD cells. The experiment in a line: In vitro cyst formation in human ADPKD cells. It counts as cell-based.
Description: I have substituted human ADPKD cells for the murine CPK cells of Example 1 and produced similar results. Other cyst-forming cells are believed to also form suitable results with only minor deviations from the conditions set forth in Example 1.
Cell suspensions were separated from debris by sedimentation at unit gravity and decantation. After washing once with DMEM/F12 medium, cells were suspended in DMEM/F12 supplemented with 1.2 gm/l sodium bicarbonate, 1× insulin, transferrin and selenium (Sigma # 11184), 1% lipids supplement (Sigma # L4646) and 1× antibiotic/antimycotic (Sigma # A7292) at a density of 5×10^4 cells per ml. Two mls of the cell suspension were aliquoted into each well of a six-well plastic cell culture plates that had been precoated with 2 mls of 1% low melting point agarose in DMEM/F12 and incubated at 37° C. in a humidified atmosphere of 5% CO2 in air.
as §1

Assay [4] relates to Murine CPK Cells. The assay can be described thus: In vitro cyst formation and cyst size in suspension culture of murine CPK cells. It counts as cell-based, mouse. As to conditions: day 21, 24 h, final concentration per Table II (cytosine arabinoside 20 μg/ml, α-amanitin 100 ng/ml, cycloheximide 49 μg/ml, ouabain 1 mM, amiloride 1 mM, brefeldin-A 10 μg/ml, griseofulvin 350 μM, colchicine 10 μM, vinblastine 1 μM, nocodazole 30 μM, taxol 25 μM, cytochalasins 10 μM).

[5] abbreviates: human ADPKD cells, cytosine arabinoside 20 μg/ml, α-amanitin 100 ng/ml, cycloheximide 40 μg/ml, amiloride 1 mM, ouabain 0.5 mM, taxol 25 μM, colchicine 10 μM, vinblastine 1 μM, cytochalasins 10 μM.

“Also recorded” adds a separate entry of the source. Where two headings read alike, the source gives them in different places.

Take `COC(=O)Nc1nc2ccc(C(=O)c3cccs3)cc2[nH]1` [Nocodazole]: the “Cyst Size” value in assay [1] came to 0 μm. Moreover, the “cyst formation (in words)” value in assay [1] (murine CPK cells) and in assay [3] (setting [5]) was “reversibly inhibited” in each case. In assay [2], the “^3 H-dThd Incorporation” value worked out at 87 ± 16 % control. Also, the “Cyst Formation (+/-)” value in assay [4] is reported as “-”.
With `C[C@@H]1C[C@@H]([C@H](O)CC2CC(=O)NC(=O)C2)C(=O)[C@@H](C)C1` [Cycloheximide], in assay [1], the “Cyst Formation (+/-)” value was “+” and the “Cyst Size” value stood at 68 ± 17 μm. The “^3 H-dThd Incorporation” value in assay [2] is 88 ± 20 % control. The “cyst formation (in words)” value in assay [3] was “Neither cytosine arabinoside (20 μg/ml), α-amanitin (100 ng/ml) nor cycloheximide (40 μg/ml) inhibited cyst formation”.
For the molecule `CC[C@]1(O)C[C@@H]2CN(CCc3c([nH]c4ccccc34)[C@@](C(=O)OC)(c3cc4c(cc3OC)N(C)[C@H]3[C@@](O)(C(=O)OC)[C@H](OC(C)=O)[C@]5(CC)C=CCN6CC[C@]43[C@@H]65)C2)C1` [Vinblastine], the “Cyst Size” value in assay [1] is 0 μm. Moreover, the “cyst formation (in words)” value in assay [1] (murine CPK cells) and in assay [3] (setting [5]) was “reversibly inhibited in vitro cyst formation in both models” in each case. The “^3 H-dThd Incorporation” value in assay [2] worked out at 93 ± 9 % control. Besides, the “Cyst Formation (+/-)” value in assay [4] is recorded as “-”.
Take `C[C@H]1CCC/C=C/[C@@H]2C[C@H](O)C[C@H]2[C@H](O)/C=C/C(=O)O1` [Brefeldin-A]: the “Cyst Size” value in assay [1] is 0 μm. In assay [1] (murine CPK cells), the “cyst formation (in words)” value is on record as “completely inhibited cyst formation”. Also, the “Cyst Formation (+/-)” value in assay [4] is listed as “-”.
Turning to `C=C1C(C)C2C(Cc3ccccc3)NC(=O)C23C(OC(C)=O)/C=C/C(C)(O)C(=O)C(C)C/C=C/C3C1O` (centres unmarked) [Cytochalasin-D], in assay [1], the “Cyst Size” value is 0 μm. For the same molecule, the “cyst formation (in words)” value in assay [1] (murine CPK cells) and in assay [3] (setting [5]) was “effectively inhibited cyst formation in both models” each time. In addition, the “^3 H-dThd Incorporation” value in assay [2] is listed as 97 ± 2 % control. In addition, the “Cyst Formation (+/-)” value in assay [4] was “-”.
On to `N=C(N)NC(=O)c1nc(Cl)c(N)nc1N` [Amiloride], for which the “Cyst Size” value in assay [1] came out at 0 μm. In addition, the “^3 H-dThd Incorporation” value in assay [2] is recorded as 72 ± 25 % control. The “cyst formation (in words)” value was “completely block cyst formation” in assay [3] (setting [5]) and “cyst formation can be blocked” in assay [3] (human ADPKD cells, cytosine arabinoside 20 μg/ml, α-amanitin 100 ng/ml, cycloheximide 40 μg/ml, amiloride 1 mM, ouabain 0.5 mM, taxol 25 μM, colchicine 10 μM, vinblastine 1 μM, cytochalasins 10 μM, listed as amiloride). Besides, the “time to lumen appearance after removing the inhibitor” value in assay [3] (human model) is listed as “twenty-four”. In addition, in assay [3] (human model, inhibitor removed), the “reversibility of inhibition of cyst formation” value was “reversible”. Further, the “Cyst Formation (+/-)” value in assay [4] is on record as “-”.
As to α-amanitin, in assay [1], the “Cyst Size” value amounted to 65 ± 27 μm. Further, in assay [1] (murine CPK cells, day 21, 24 h, final concentration per Table II (cytosine arabinoside 20 μg/ml, α-amanitin 100 ng/ml, cycloheximide 49 μg/ml, ouabain 1 mM, amiloride 1 mM, brefeldin-A 10 μg/ml, griseofulvin 350 μM, colchicine 10 μM, vinblastine 1 μM, nocodazole 30 μM, taxol 25 μM, cytochalasins 10 μM)), the “Cyst Formation (+/-)” value is listed as “+”. In assay [2], the “^3 H-dThd incorporation / DNA synthesis (in words)” value is listed as “small, but significant, decrease in ^3 H-dThd incorporation” and the “^3 H-dThd Incorporation” value is listed as 71 ± 10 % control. Also, the “cyst formation (in words)” value in assay [3] (setting [5]) was “Neither cytosine arabinoside (20 μg/ml), α-amanitin (100 ng/ml) nor cycloheximide (40 μg/ml) inhibited cyst formation”.
Take `COc1cc2c(c(OC)c1OC)-c1ccc(OC)c(=O)cc1[C@@H](NC(C)=O)CC2` [Colchicine]: the “^3 H-dThd Incorporation” value in assay [2] is 97 ± 12 % control.
Turning to `C=C1C(C)C2C(Cc3ccccc3)NC(=O)C23OC(=O)/C=C/C(O)CCCC(C)C/C=C/C3C1O` (centres unmarked) [Cytochalasin-B], in assay [1], the “Cyst Size” value turned out to be 0 μm. In addition, the “cyst formation (in words)” value in assay [1] (murine CPK cells) and in assay [3] (setting [5]) was “effectively inhibited cyst formation in both models” in each case. Further, the “^3 H-dThd Incorporation” value in assay [2] is listed as 96 ± 5 % control. Moreover, the “Cyst Formation (+/-)” value in assay [4] was “-”.
In the case of `Nc1ccn([C@@H]2O[C@H](CO)[C@@H](O)[C@@H]2O)c(=O)n1` [Cytosine arabinoside, cytosine arabinoside], the “Cyst Size” value in assay [1] is 70 ± 21 μm. The “cyst formation (in words)” value in assay [1] (murine CPK cells) is reported as “cyst formation was not affected; also recorded: cyst formation was not impaired after 24 hours of culture”; in assay [3] (setting [5]), “Neither cytosine arabinoside (20 μg/ml), α-amanitin (100 ng/ml) nor cycloheximide (40 μg/ml) inhibited cyst formation; also recorded: no effect on in vitro cyst formation is observed”. Further, in assay [2], the “^3 H-dThd incorporation / DNA synthesis (in words)” value is “profound decrease in ^3 H-dThd incorporation; also recorded: effectively abolished ^3 H-dThd incorporation”. Also, the results for the “^3 H-dThd Incorporation” value in assay [2] and in assay [2] (listed as cytosine arabinoside) were 2 ± 2 % control and 2±2 % control, respectively. In addition, the “Cyst Formation (+/-)” value in assay [4] is “+”.

The values are drawn from patent publication US5882881A, “Inhibition of cyst formation by cytoskeletal specific drugs” (priority 1998, dated 1999).
